Data: patent US9617285B2, “1-hydroxy-benzooxaboroles as antiparasitic agents” (priority 2013, dated 2017)

Key:
Assay type in all cases: in vivo
Uncinaria stenocephala = test: Experimental hookworm infections in dogs, U. stenocephala; conditions: oral, point dose of no greater than 25 mg/kg bodyweight, by Day 5
Method: (§1) Activity of Example 1 Compound Against Experimental Hookworm Infections in Dogs
(§2) The antihelminthic activity of the Example 1 compound, when administered orally at a point dose of no greater than 25 mg/kg bodyweight, is evaluated against experimental infections of the hookworms Ancylostoma caninum and Uncinaria stenocephala in dogs. Four (4) beagle dogs in good health are inoculated with 3rd-stage infective larvae of each hookworm species, per W.A.A.V.P. Guidelines (Jacobs, D. E., A. Arakawa, C. H. Courtney, et al., 1994. Vet. Parasitol. 52: 179-202) so as to provide sufficient time for development of full patency. Fecal egg counts are conducted twice before treatment (Day-2 and Day-1). On Day 0, test article (technical active dissolved in 55-65% polyethylene glycol-300, 25-35% propylene glycol and 10-20% water) is administered to all four dogs via esophageal feeding tube. Fecal egg counts are conducted post-treatment on Days 3, 5 and 7. The average of two pre-treatment fecal egg counts is used for comparison to post-treatment egg counts for the purposes of calculating efficacy (geometric mean % reduction in fecal egg count) against each hookworm species.

Ancylostoma caninum = test: Experimental hookworm infections in dogs, A. caninum; conditions: oral, point dose of no greater than 25 mg/kg bodyweight, by Day 3
Method: as §1, §2

[1] = Tolerability of treatment in hookworm-infected dogs; conditions: oral, point dose of no greater than 25 mg/kg bodyweight
Method: as §2

## C[C@](C#N)(COc1ccc2c(c1Cl)B(O)OC2)NC(=O)c1ccc(OC(F)(F)F)cc1 (single isomer, unassigned) [Example 1]
Uncinaria stenocephala
  reduction in U. stenocephala fecal egg count: > 50%
Ancylostoma caninum
  reduction in A. caninum fecal egg counts: > 50%
[1]
  tolerability of treatment: well tolerated
